Source: PMC6297782, “DNA-Mediated Interferon Signature Induction by SLE Serum Occurs in Monocytes Through Two Pathways: A Mechanism to Inhibit Both Pathways” (Frontiers in Immunology, 2018)

Tests used:
[1] = test system: primary human monocytes / SLE serum-induced ISGs; assay: ISG induction by SLE serum in healthy donor monocytes (qPCR); assay type: cell-based; conditions: 4 h, two DWEYS concentrations, control peptide at the higher dose, mean ± SD of three independent experiments
[2] = test system: CpG:TLR9 binding; assay: Inhibition of CpG binding to TLR9, AlphaScreen; conditions: constant CpG concentration
Procedure: Binding of TLR9 to biotinylated CpG or the DWEYS peptide was assayed in a buffer consisting of 50 mM Tris-HCl pH 7.4, 100 mM NaCl, 1% ultrapure BSA, 0.01% Tween 20 using an amplified luminescent proximity assay with streptavidin-conjugated donor beads and nickel chelate acceptor beads (AlphaScreen; Perkin Elmer, Boston, MA, USA), as described before ([1]).
Figure 2 DWEYS inhibits the transfer of the interferon signature by SLE serum but is not a TLR9 antagonist. (A) Primary human monocytes were incubated with SLE serum with or without DWEYS or with control peptide for 4 h. lSG expression was evaluated by qPCR. […] (B) Assessment of DWEYS and CpG oligonucleotides binding to TLR9. Labeled TLR9 was incubated with varying concentrations of CpG or DWEYS for 30 min in room temperature. Binding was assessed using an AlphaScreen assay as described in the methods section. (C,D) Inhibition assay. Labeled TLR9 and constant, binding concentration of CpG were incubated with different concentrations of DWEYS or a control peptide at neutral (pH 7.4, C) or acidic (pH 6.25, D) condition. Binding was assessed using an AlphaScreen assay as noted in the methods section. Results are representative of three independent experiments. ^***p < 0.001, ns, not significant.

[3] = test system: human monocytes (CpG internalization); assay: FITC-CpG internalization by human monocytes, microscopy; assay type: cell-based; conditions: 37°C, 15 min (legend 20 min)
Procedure: (§1) For HMGB1 or CpG internalization assays, isolated human monocytes were cultured in 8 well-chamber-slides (Nunc, LabTek, Thermo-Fisher) in X-VIVO 15 culture medium. Cells were allowed to adhere for 2 h and then washed with PBS and incubated with AlexaFluor-594 HMGB1 or FITC-CpG with or without DWEYS for 15 min. Nuclei were counterstained using DAPI. Cells were washed three times with cold PBS and then fixed with 4% PFA and mounted using Dako mounting solution (Agilnet Technologies, Santa Clara, CA, USA).
Non IC-bound DNA can also be internalized by binding to HMGB1, with the HMGB1-DNA complex binding to RAGE ([1]). […] We incubated monocytes from healthy donors with FITC labeled CpG. […] CpG is internalized chaperoned by HMGB1 binding through RAGE.
Figure 4 DWEYS binds HMGB1 and inhibits its binding to RAGE. (A) Monocytes were incubated with labeled CpG (red) and DWEYS or control peptide for 20 min. Cells were counterstained with DAPI prior to imaging. (B) Depicts adjusted fluorescence intensity for three experiments run. (C) Monocytes from C57BL6 wild type (WT) or RAGE^−/− mice were incubated with labeled CpG for 20 min and counterstained with DAPI prior to imaging. (D) Primary human monocytes were incubated with CpG and with or without DWEYS or a control peptide for 20 min. ISG expression was analyzed by qPCR. […]

[4] = test system: CpG-induced ISGs, primary human monocytes; assay: ISG induction by CpG in monocytes (qPCR); assay type: cell-based; conditions: CpG with or without peptide, 20 min per legend, three independent experiments
[5] = test system: HMGB1; assay: HMGB1 binding, surface plasmon resonance; conditions: SPR Biacore T200, HMGB1 immobilized on CM5 chip, 25°C
Procedure: A Biacore T200 apparatus (GE Healthcare Bio-Sciences, Pittsburgh, PA, USA) was used for real-time binding interaction studies. For HMGB1 and DWEYS peptide binding analyses, HMGB1 protein was immobilized onto a CM5 series chip (GE Healthcare). The HMGB1 protein was diluted to a concentration of 20 μg/mL in 10 mM sodium acetate buffer (pH = 4.5). A 1:1 mixture of N-hydroxysuccinimide and N-ethyl-N-(dimethyaminopropyl) carbodiimide was used to activate two flow-cells of the CM5 chip. […] The sample flow-cell was injected with the diluted HMGB1 at a flow rate of 10 μL/min. The HMGB1 injection was stopped when the surface plasmon resonance reached ~600 RU. For HMGB1 and DWEYS peptide kinetics assay, DWEYS peptide were sequentially injected at a flow rate of 20 μL/min for 120 s at 25°C, the dissociation time was set for 2 min. The concentrations were 16, 31.25, 62.5, 125, 250 μM. The equilibrium dissociation constant (KD) was obtained to evaluate the binding affinity by using the BIAEvaluation 2.0 software (GE Healthcare) assuming a 1:1 binding ratio. At least 3 independent experiments were performed.

[6] = test system: human monocytes (HMGB1 internalization); assay: HMGB1 internalization by human monocytes, microscopy; assay type: cell-based; conditions: AF-594-labeled HMGB1, human monocytes
Procedure: as §1
(B) Inhibition curve used for IC50 evaluation as noted in the methods section. (C,D) Human monocytes were incubated with labeled HMGB1 (red) alone (C, top panel) or HMGB1 and DWEYS (C, middle panel) or HMGB1 and control peptide (C, bottom panel) for 20 min. Cells were counterstained with DAPI and imaged using a confocal laser scanning microscope. (D) Indicates adjusted fluorescence intensity for three experiments. (E) Primary human monocytes were incubated with HMGB1 and with or without DWEYS or control peptide for 4 h. lSG expression was evaluated using qPCR.

[7] = test system: HMGB1-induced ISGs, primary human monocytes; assay: ISG induction by HMGB1 in monocytes (qPCR); assay type: cell-based; conditions: HMGB1 with DWEYS or control peptide, 4 h, three independent experiments
Procedure: Human cells were obtained with approval of the Institutional Review Board of the Feinstein Institute for Medical Research. PBMCs were isolated from blood of healthy donors (New York Blood Center) by density centrifugation. Monocytes were enriched by negative selection using a human monocyte enrichment kit ([…] Technologies). Purity of monocytes (CD11b^+, CD14^+, LAIR-1^+) was determined to be >90% by flow cytometry (FACS Calibur, BD Biosciences, San Jose, CA, USA). Purified monocytes (2 × 10^6 cells/ml) were cultured in U-bottom 96-well plates in X-VIVO 15 serum free medium (Lonza) with the indicated reagents and harvested at 4–6 h later, or at the indicated times. […] Murine monocyte purity was determined to be >90%.
Total RNA was extracted from cells (1–2 × 10^6 cells per sample) with an RNeasy kit (Qiagen, Germantown, MD, USA) and cDNA was generated using an iScript cDNA synthesis kit (Bio-Rad, Hercules, CA, USA). qRT-PCR was performed on a Light Cycler 480 II (Roche, Indianapolis, IN, USA). […] The relative induction was calculated by 2^−ΔΔCt.
(B) Inhibition curve used for IC50 evaluation as noted in the methods section. […] (D) Indicates adjusted fluorescence intensity for three experiments. (E) Primary human monocytes were incubated with HMGB1 and with or without DWEYS or control peptide for 4 h. lSG expression was evaluated using qPCR.

[8] = test system: primary human monocytes; assay: DWEYS internalization into monocytes (ImageStream); assay type: cell-based; conditions: 20 min
Procedure: Primary human monocytes were incubated for 20 min with biotin-tagged DWEYS peptide alone or with serum from SLE patients or healthy controls. Following incubation, cells were thoroughly washed and stained with anti-CD14 antibody (R&D Technologies, North Kingston, RI, USA) for 40 min at 4°C. Cells were then washed, fixed using 4% PFA and permeabilized using 1% Triton-X100, followed by incubation with labeled streptavidin for 40 min. Cell nuclei were counterstained with DAPI and cells were imaged using an ImageStream device (Amnis, Burlington, MA, USA).
Figure 3 DWEYS displaces DNA from immune complexes and inhibits DNA internalization into monocytes. (A) Primary human monocytes were incubated with labeled heat aggregated human lgG (hlgG, red) and either DWEYS or a blocking anti-FcRIIa antibody for 20 min. Cells were counterstained with DAPI and imaged using a laser scanning confocal microscope. (B) The graphs indicates adjusted fluorescence intensity for three experiments. (C) SLE serum was incubated with Syto 60 labeled dsDNA (5 μM), followed by DWEYS or control peptide (100 μM) for 30 min each. lgG was then isolated on protein G beads and Syto60 levels from protein G beads were quantified using LICOR scanner. OD was normalized to a standard labeled and filtered DNA. […] (D,E) Primary human monocytes were incubated with biotinylated DWEYS alone or biotinylated DWEYS and SLE serum from patients with or without anti ds DNA antibodies for 20 min. Cells were then stained for CD 14 as a membrane marker and intracellular DWEYS was tagged using fluorochrome labeled streptavidin. Intracellular DWEYS was quantified using lmageStream instrument: DWEYS fluorescence levels by flow cytometry (D) and representative ImageStream cell images (E). One representative experiment of three with similar results is shown. ^*p < 0.05; ns, not significant.

[9] = target: T1, Recombinant HMGB1 (Calmodulin Binding Protein Epitope, Cbp tagged) (UniProt P09429 1-215); assay: SPR; Biacore T200; HMGB1 amine-coupled to a CM5 chip (~600 RU); peptide injected at 16-250 μM, 20 μL/min, 120 s, 25°C; 1:1 binding assumed; apparent KD; conditions: both partners purified
T1 construct: high-mobility group box-1 protein (HMGB1), recombinant; The reagents also list 'reduced HMGB1'; also called high-mobility group box-1
T1 sequence (looked up): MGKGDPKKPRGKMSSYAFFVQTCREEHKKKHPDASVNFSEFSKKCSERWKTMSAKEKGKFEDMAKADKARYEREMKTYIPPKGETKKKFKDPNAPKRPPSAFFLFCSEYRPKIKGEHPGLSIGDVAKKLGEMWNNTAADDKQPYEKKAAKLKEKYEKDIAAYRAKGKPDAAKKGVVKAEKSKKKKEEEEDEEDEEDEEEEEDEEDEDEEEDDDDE

[10] = target: T1, Recombinant HMGB1 (Calmodulin Binding …); assay: SPR; inhibition assay, Biacore T200; sRAGE amine-coupled to a CM5 chip (~500 RU); HMGB1 (0.5 μM) with or without DWEYS 50 to 1.6 μM injected at 30 μL/min for 60 s, 25°C; PBS + 0.05 Tween 20; conditions: both partners purified

## TATAT [control peptide]
[1]
  ISG induction by SLE serum (effect of peptide): showed an induction of all three ISGs studied
[2]; pH 6.25 (simulating activated endosome)
  inhibition of CpG binding to TLR9, acidic pH: neither DWEYS, nor a control peptide, used at various concentrations, inhibited the binding
[2]; pH 7.4
  inhibition of CpG binding to TLR9, neutral pH: neither DWEYS, nor a control peptide, used at various concentrations, inhibited the binding
[3]
  CpG internalization (effect of peptide): no effect
[4]
  CpG induction of ISGs (effect of peptide): failed to inhibit ISG induction
[5]
  binding to immobilized HMGB1: did not bind
[6]; 20 min, confocal microscopy
  HMGB1 internalization (effect of peptide): no inhibition of HMGB1 internalization
[7]
  ISG level on HMGB1 incubation: increased level of ISGs, in the presence of control peptide

## biotinylated DWEYS [labeled DWEYS]
[8]; biotinylated DWEYS alone
  internalization of DWEYS, no serum: only minimal internalization
[8]; biotinylated DWEYS with SLE serum with high anti-DNA antibody titer
  internalization of DWEYS, SLE serum with high anti-DNA titer: significant intracellular internalization of DWEYS was seen
[8]; biotinylated DWEYS with SLE serum with low titers of anti-DNA antibodies
  internalization of DWEYS, SLE serum lacking anti-DNA antibodies: did not mediate DWEYS internalization
[8]; biotinylated DWEYS with serum from healthy donors
  internalization of DWEYS, healthy donor serum: only minimal internalization

B1: DWEYS peptide (peptide)
peptide: DWEYS
notes: the biotinylated form may have been used there; also called pentapeptide DWEYS; DNA mimetope; source: synthetic peptide (GenScript)
[9]
  Kd: 185 µM
[10]
  IC50: 34.7 µM

B2: high-mobility group box-1 (protein)
chain: T1 sequence (looked up)
modifications: left off: Calmodulin Binding Protein Epitope (Cbp), end not stated, state not stated
[6]
  HMGB1 internalization alone: detected in monocytes after 15–30 min in incubation
